Measured values from patent US8106004B2, “Methods of inhibiting tumor cell aggressiveness using the microenvironment of human embryonic stem cells” (Children's Memorial Hospital, priority 2006, dated 2012).

Tested on: Nodal
Assay: Nodal expression in C8161 cells (Western blot, real time RT-PCR)
Type: cell-based, human
Details: anti-Nodal Morpholino
Method: A determination of the effects of H9 CMTX on Nodal expression in metastatic melanoma (C8161) and breast carcinoma (MDA-MB-231) cells was undertaken. […] Exposure to H9 CMTX similarly abrogates Nodal mRNA expression in the melanoma and breast carcinoma cells (FIG. 9C).
Protein lysates were prepared and quantified as previously described in Hess et al., 2001, Cancer Res. 61:3250-3255. Equal amounts of protein were separated by SDS-polyacrylamide gel electrophoresis under reducing conditions, and the resolved proteins were transferred onto Immobilon-P membranes (Millipore Corp., Bedford, Mass.). Membranes were blocked in 1% TBS, 0.1% Tween 20 (TBS-T) and 5% dry milk powder or 3% gelatin (for Nodal Westerns). Blots were incubated with anti-Nodal or anti-Lefty antibodies (Polyclonal rabbit anti-Nodal (H-110) 1:500 Santa Cruz Biotechnology, Santa Cruz, Calif.; Polyclonal goat anti-Lefty 1:500 R&D Systems, Minneapolis, Minn.), washed in TBS-T, and incubated with the appropriate horseradish peroxidase-labeled secondary antibody. Secondary antibodies were detected by enhanced chemiluminescence (Super Signal; Pierce, Rockford, Ill.) and exposure to autoradiography film (Molecular Technologies, St Louis, Mo.). Nodal protein was detected as two major bands at ˜48 and ˜35 kDa representing precursor and pro-Nodal respectively. Nodal often appeared as multiple bands, likely due to degradation of protein modifications. All experiments were done at least three times.
The derivation and phenotypic characteristics of the human melanoma cell lines have been previously described. Seftor, et. al., 2002, Clin. Experim. Metastas. 19:233-246; Seftor, et. al., 2005 Cancer Res. 65:10164-10169. The melanoma cell lines are maintained in RPMI 1640 medium (Invitrogen) supplemented with 10% fetal bovine serum (FBS, Gemini Bioproducts) and 0.1% gentamycin sulfate with the exception of C81-61 cells which are maintained in Ham's FIO medium supplemented with 15% FBS, 1X Mito+ (BD Bioscience) and gentamycin sulfate. […] The cultures are determined to be free of mycoplasma contamination using a PCR-based assay (Roche). […]

MO^Nodal: FITC-conjugated anti-sense Morpholino to Nodal, 5′-AAGCAGCACCTCCAGCCCTTATATC-3′ [SEQ ID NO: 20] (all phosphorodiamidate morpholino (PMO); FITC conjugated, position not given here)
Nodal expression: down-regulation of Nodal
